Assays:
Format in all cases: cell-based, human
[1] = system: Adipose-derived stem cells; experiment: Culture in the presence of 5-azacytidine; conditions: exposure to 5-azacytidine
Experimental: Adipose-derived stem cells obtained in accordance with Example 1 were cultured in the presence of 5-azacytidine.

matrix mineralization = experiment: Total calcium, spectrophotometric
Experimental: Cells were washed with PBS (no Ca^2+, no Mg^2+) and harvested in 0.1N HCl. Cells were extracted for a minimum of 4 hours at 4° C. and centrifuged at 1000×g for 5 minutes. Total calcium in the supernatant was determined using Sigma kit #587 and measured at A575 nm. The assay was calibrated using calcium standard solutions. Total protein was determined and the samples were expressed as mM Ca/ug protein. […] Values are expressed as the mean±SD.
Bone formation in vivo is a complex process involving morphogens, hormones and growth factors. Recent work has questioned the efficacy of synthetic glucocorticoids, like dexamethasone (Dex), in mediating osteogenesis. Glucocorticoids appear to inhibit the action of several osteogenic genes including osteocalcin, CBFA-1 and CNI (as reviewed in Cooper, et al., 1999 J. Endocrinol. 163:159-164). It is well established that bone tissue and osteoprogenitor cells are targets of vitamin D action (Chen, et al., 1983 J. Biol. Chem. 258:4350; Chen, et al., 1979 J. Biol. Chem. 254:7491; Narbaitz, et al., 1983 Calcif. Tiss. Int. 35:177) and this metabolite stimulates both AP activity and CNI synthesis by human bone cell populations (Beresford, et al., 1986 Endo 119:1776-1785). […] AP activity and Ca^2+ accumulation were measured over time using commercial kits and normalized with respect to protein and/or time.

Alkaline phosphatase = Alkaline phosphatase enzyme activity, spectrophotometric; conditions: 2 to 3 weeks
PLA cells = experiment: Micromass culture chondrogenic nodule formation; conditions: induction medium containing TGFβ1 alone
Experimental: Chondrogenic differentiation was induced using a micromass culture protocol as previously described with some modifications (Ahrens, P B, et al., 1977 Dev. Biol. 60:69-82; Denker, A E 1995 Differentiation 59:25-34). Ten microliter drops of the PLA cellular suspension were placed in the center of each well of a 24-well tissue culture plate and on chamber slides. The cells were placed in an incubator at 37° C. at 5% CO2 for two hours to allow cell adherence. The pellets were gently overlaid with control medium and incubated overnight. The medium was replaced by chondrogenic medium [DMEM with 1% FBS supplemented with 10 ng/ml TGF-β1 (R&D Systems, Minneapolis, Minn.), 6.25 μg/ml insulin (Sigma), and 6.25 μg/ml transferrin (Sigma)]. The pellets were induced for six days in chondrogenic medium. At day six and thereafter, 50 μg/ml ascorbic acid-2-phosphate (Sigma) was added to the chondrogenic medium mixture. PLA pellets were harvested at days two, seven, and fourteen after initial induction for analysis. […] HFF cells were cultured as above under micromass and monolayer conditions as a negative control.
In order to assess the relationship of chondrogenic induction to PLA cell, micromass cultures were plated in chondrogenic medium at cell concentrations of 1×10^5, 1×10^6, 2.5×10^6, 5×10^6, 1×10^7, 2×10^7, and 5×10^7 cells per milliliter (cells/ml). […]

Nc1ncn([C@@H]2O[C@H](CO)[C@@H](O)[C@H]2O)c(=O)n1 [5-azacytidine]
myogenic differentiation of adipose-derived stem cells [1]: did not induce myogenic differentiation

C=C1/C(=C\C=C2/CCC[C@]3(C)[C@@H]([C@H](C)CCCC(C)(C)O)CC[C@@H]23)C[C@@H](O)C[C@@H]1O [VD, 1,25-dihydroxyvitamin D3]
overall increase in matrix mineralization in PLA cells (matrix mineralization): 122 fold

C[C@@H]1C[C@H]2[C@@H]3CCC4=CC(=O)C=C[C@]4(C)[C@@]3(F)[C@@H](O)C[C@]2(C)[C@@]1(O)C(=O)CO [Dex, dexamethasone]
AP enzyme induction in MSCs (Alkaline phosphatase; MSCs): 54.2 fold
AP enzyme induction in PLA cells (Alkaline phosphatase; PLA cells): 17.2 fold
overall increase in matrix mineralization in PLA cells (matrix mineralization): 56 fold

TGFβ1: transforming growth factor-beta 1
nodule formation by PLA cells (PLA cells): PLA nodules formed
